Test results: patent US20220119354A1, “DIAMINO-SUBSTITUTED PYRIDINES AND PYRIMIDINES AS HERBICIDES” (FMC Corporation, priority 2019, published 2022)

Tests used:
Type in all cases: in vivo
[1] = test system: wheat (Triticum aestivum); test: Test A postemergence, wheat; settings: 0 to 100 scale; for Plant response rating, Wheat: 0 no effect, 100 complete control
Outline: (§1)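 Greenhouse pot test, loam/sand soil. Pre: directed soil spray at planting; post: foliar spray at 1–2 leaf stage (2–10 cm). Chemical in non-phytotoxic solvent + surfactant. Visual rating ~10 d, 0 = no effect, 100 = complete control.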

[2] = test system: galium (catchweed bedstraw, Galium aparine); test: Test A postemergence, galium; settings: 0 to 100 scale; for Plant response rating, Galium: 0 no effect, 100 complete control
Outline: as §1

[3] = test system: ragweed (common ragweed, Ambrosia elatior); test: Test A postemergence, ragweed; settings: 0 to 100 scale; for Plant response rating, Ragweed: 0 no effect, 100 complete control
Outline: as §1

[4] = test system: foxtail, giant (Setaria faberii); test: Test A preemergence, giant foxtail; settings: 0 to 100 scale, 0 is no effect, 100 is complete control
Outline: as §1

[5] = test system: ducksalad (Heteranthera limosa); test: Test B flooded paddy test, ducksalad; settings: Flood, 250 g ai/ha, applied to paddy water, 2-leaf stage, visual evaluation after 13 to 15 d
Outline: (§2)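 Visual injury scores run from 0 (no effect) to 100 (complete control), assigned by comparison with controls 13 to 15 d after treatment. Treatment went into floodwater standing 3 cm over the soil of pots holding 2-leaf plants.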

[6] = test system: kochia (Kochia scoparia); test: Test A preemergence, kochia; settings: 0 to 100 scale, 0 is no effect, 100 is complete control
Outline: as §1

[7] = test system: barnyardgrass (Echinochloa crus-galli); test: Test A postemergence, barnyardgrass; settings: 0 to 100 scale; for Plant response rating, Barnyardgrass: 0 no effect, 100 complete control
Outline: as §1

[8] = test system: barnyardgrass (Echinochloa crus-galli); test: Test A preemergence, barnyardgrass; settings: 0 to 100 scale, 0 is no effect, 100 is complete control
Outline: as §1

[9] = test system: ryegrass, Italian (Lolium multiflorum); test: Test A postemergence, Italian ryegrass; settings: 0 to 100 scale; for Plant response rating, Ryegrass, Italian: 0 no effect, 100 complete control
Outline: as §1

[10] = test system: ragweed (common ragweed, Ambrosia elatior); test: Test A preemergence, ragweed; settings: 0 to 100 scale, 0 is no effect, 100 is complete control
Outline: as §1

[11] = test system: blackgrass (Alopecurus myosuroides); test: Test A postemergence, blackgrass; settings: 0 to 100 scale; for Plant response rating, Blackgrass: 0 no effect, 100 complete control
Outline: as §1

[12] = test system: corn (Zea mays); test: Test A postemergence, corn; settings: 0 to 100 scale; for Plant response rating, Corn: 0 no effect, 100 complete control
Outline: as §1

[13] = test system: kochia (Kochia scoparia); test: Test A postemergence, kochia; settings: 0 to 100 scale; for Plant response rating, Kochia: 0 no effect, 100 complete control
Outline: as §1

[14] = test system: barnyardgrass (Echinochloa crus-galli); test: Test B flooded paddy test, barnyardgrass; settings: Flood, 250 g ai/ha, applied to paddy water, 2-leaf stage, visual evaluation after 13 to 15 d
Outline: as §2

[15] = test system: pigweed (Amaranthus retroflexus); test: Test A postemergence, pigweed; settings: 0 to 100 scale; for Plant response rating, Pigweed: 0 no effect, 100 complete control
Outline: as §1

[16] = test system: rice (Oryza sativa); test: Test B flooded paddy test, rice; settings: Flood, 250 g ai/ha, applied to paddy water, 2-leaf stage, visual evaluation after 13 to 15 d
Outline: as §2

[17] = test system: ryegrass, Italian (Lolium multiflorum); test: Test A preemergence, Italian ryegrass; settings: 0 to 100 scale, 0 is no effect, 100 is complete control
Outline: as §1

[18] = test system: sedge, umbrella (small-flower umbrella sedge, Cyperus difformis); test: Test B flooded paddy test, umbrella sedge; settings: Flood, 250 g ai/ha, applied to paddy water, 2-leaf stage, visual evaluation after 13 to 15 d
Outline: as §2

[19] = test system: pigweed (Amaranthus retroflexus); test: Test A preemergence, pigweed; settings: 0 to 100 scale, 0 is no effect, 100 is complete control
Outline: as §1

[20] = test system: foxtail, giant (Setaria faberii); test: Test A postemergence, giant foxtail; settings: 0 to 100 scale; for Plant response rating, Foxtail, Giant: 0 no effect, 100 complete control
Outline: as §1

[21] = 500 g ai/ha, 0 is no effect, 100 is complete control

SMILES	Plant response rating, Wheat ([1]; 125 g ai/ha)	Plant response rating, Galium ([2]; 125 g ai/ha)	Plant response rating, Ragweed ([3]; 125 g ai/ha)	Foxtail, Giant plant response rating ([4]; 125 g ai/ha)	Plant response rating, Ducksalad (0 to 100 scale, 0 is no effect, 100 is complete control) [5]	Kochia plant response rating ([6]; 125 g ai/ha)	Plant response rating, Barnyardgrass ([7]; 125 g ai/ha)	Barnyardgrass plant response rating ([8]; 125 g ai/ha)	Plant response rating, Ryegrass, Italian ([9]; 125 g ai/ha)	Ragweed plant response rating ([10]; 125 g ai/ha)	Plant response rating, Blackgrass ([11]; 125 g ai/ha)	Plant response rating, Corn ([12]; 125 g ai/ha)	Plant response rating, Kochia ([13]; 125 g ai/ha)	Plant response rating, Barnyardgrass (0 to 100 scale, 0 is no effect, 100 is complete control) [14]	Plant response rating, Pigweed ([15]; 125 g ai/ha)	Plant response rating, Rice (0 to 100 scale, 0 is no effect, 100 is complete control) [16]	Ryegrass, Italian plant response rating ([17]; 125 g ai/ha)	Plant response rating, Sedge, Umbrella (0 to 100 scale, 0 is no effect, 100 is complete control) [18]	Pigweed plant response rating ([19]; 125 g ai/ha)	Plant response rating, Foxtail, Giant ([20]; 125 g ai/ha)	other results
C[C@@H](Nc1ncc(C(F)(F)F)c(N)n1)c1cc2ccc(F)cc2s1 [Compound 46]	0	60	50	70	30	90	20	20	0	80	20	0	90	40	100	10	20	95	100	10	Wheat plant response rating [1, 21]: 0; Galium plant response rating [2, 21]: 90; Ragweed plant response rating [3, 21]: 80; Foxtail, Giant plant response rating ([4]; 500 g ai/ha): 100; Kochia plant response rating ([6]; 500 g ai/ha): 100; Barnyardgrass plant response rating [7, 21]: 60; Barnyardgrass plant response rating ([8]; 500 g ai/ha): 90; Ryegrass, Italian plant response rating [9, 21]: 40; Ragweed plant response rating ([10]; 500 g ai/ha): 100; Blackgrass plant response rating [11, 21]: 30; Corn plant response rating [12, 21]: 60; Kochia plant response rating [13, 21]: 90; Pigweed plant response rating [15, 21]: 100; Ryegrass, Italian plant response rating ([17]; 500 g ai/ha): 80; Pigweed plant response rating ([19]; 500 g ai/ha): 100; Foxtail, Giant plant response rating [20, 21]: 60
C[C@@H](Nc1ncc(C(F)(F)F)c(N)n1)c1cc2c(Cl)cccc2s1 [Compound 116]	0	80	60	60	60	40	50	30	30	70	0	30	80	35	100	0	40	65	80	90	Plant response rating, Wheat ([1]; 31 g ai/ha): 0; Plant response rating, Galium ([2]; 31 g ai/ha): 60; Plant response rating, Ragweed ([3]; 31 g ai/ha): 40; Foxtail, Giant plant response rating ([4]; 31 g ai/ha): 20; Kochia plant response rating ([6]; 31 g ai/ha): 30; Plant response rating, Barnyardgrass ([7]; 31 g ai/ha): 10; Barnyardgrass plant response rating ([8]; 31 g ai/ha): 0; Plant response rating, Ryegrass, Italian ([9]; 31 g ai/ha): 30; Ragweed plant response rating ([10]; 31 g ai/ha): 60; Plant response rating, Blackgrass ([11]; 31 g ai/ha): 0; Plant response rating, Corn ([12]; 31 g ai/ha): 20; Plant response rating, Kochia ([13]; 31 g ai/ha): 30; Plant response rating, Pigweed ([15]; 31 g ai/ha): 90; Ryegrass, Italian plant response rating ([17]; 31 g ai/ha): 20; Pigweed plant response rating ([19]; 31 g ai/ha): 40; Plant response rating, Foxtail, Giant ([20]; 31 g ai/ha): 10
